ChEMBL document CHEMBL1131148, “Synthesis and modeling studies of a potent conformationally rigid muscarinic agonist: 1-azabicyclo[2.2.1]heptanespirofuranone” (J Med Chem, 1998)

How the values were obtained:
[1] = biological target: Muscarinic acetylcholine receptor; assay: Binding affinity against Muscarinic acetylcholine receptor using [3H]-OXO-M as the radioligand.; format: protein assay, Rattus norvegicus
Rattus norvegicus = species: Rattus norvegicus; assay: Stimulation of phosphatidyl inositol(PI) hydrolysis as compared to that of carbachol, was determined in rat hippocampal slices; format: functional, Hippocampus

Row | SMILES | Ki [1] [nM] | Intrinsic activity (Rattus norvegicus) [%]
1 | C[C@H]1OCC2(CN3CCC2C3)O1 (stereo not given in full) | 14 | 75
2 | CCC[C@H]1O[C@@]2(CC1=O)CN1CCC2C1 (stereo not given in full) | 2 | 0
3 | CC[C@H]1O[C@@]2(CC1=O)CN1CCC2C1 (stereo not given in full) | 3.7 | 39
4 | CC[C@@H]1O[C@@]2(CC1=O)CN1CCC2C1 (stereo not given in full) | 0.4 | 47
5 | CN1O[C@@]2(CC1=O)CN1CCC2C1 (stereo not given in full) | 4 | 22.6
6 | C[C@@H]1O[C@@]2(CC1=O)CN1CCC2C1 (stereo not given in full) | 0.8 | 81
7 | CCC[C@@H]1O[C@@]2(CC1=O)CN1CCC2C1 (stereo not given in full) | 2 | 0
8 | CC1OC2(CCN(C)CC2)CC1=O (stereo not given) | 6.7 | 51
9 | CC1O[C@@]2(CC1=O)CN1CCC2CC1 (stereo not given in full) | – | 9
10 | Cc1noc(C2CN3CCC2C3)n1 (stereo not given) | 0.2 | 106
11 | C[N+](C)(C)CCOC(N)=O.[Cl-] [CARBACHOL] | – | 100
